Laboratory results published in patent US7271192B2, “Substituted 2-pyrrolidine-2-yl-1H-indole compounds” (Gruenenthal GmbH, priority 2001, dated 2007).

These compounds were tested against T1, nNOS (Rattus norvegicus, UniProt P29476) (assay: NOS assay (HTS NOS assay, radioactive arginine, filter plate)). Conditions: enzyme preparation from rat cerebelli.
T1 construct: Rat cerebelli were used as the starting tissue; from tissue; host or cells: rat cerebellum (20,000 g supernatant of homogenate)
Assay type: biochemical
Procedure: This assay allows the determination of the percentage inhibition of NO synthase by an active compound by means of measurement of the NOS activity under the action of the active compound. In this procedure, NO synthase is mixed together with radioactively labelled arginine and the active compound under suitable conditions. After discontinuation of the NO formation reaction at a given point in time, the amount of unreacted arginine is determined directly or indirectly. Comparison of this amount with the amount of arginine which remains in a sample from the mixture of NOS and arginine without the addition of active compound and under otherwise identical conditions gives the % inhibition of NO synthase by the active compound tested. This assay can be carried out as follows:
incubation of NO synthase with labelled arginine as the substrate in a reaction vessel,
separation of the labelled arginine from the labelled citrulline possibly formed as the product of the enzymatic reaction at a point in time at which the concentration of citrulline increases,
measurement of the amount of arginine separated off in the particular case.
The separation is carried out via a filter plate membrane.
This NOS assay is particularly suitable for a “high throughput screening” (HTS) on microtitre plates (MTP).
In this HTS NOS assay, radioactive arginine is used as the substrate. The assay volume can be chosen in the range between 25 μl and 250 μl, depending on the nature of the microtitre plate (MTP). Cofactors and coenzymes are added, depending on the enzyme source used. The incubation of the batches in this microtitre plate (assay MTP) according to step (a) is carried out at room temperature and is between 5 and 60 minutes, depending on the enzyme activity (units) used. At the end of the incubation (step (a)), the plate is placed in a cell harvester equipped with an MTP which has a cation exchange membrane as the filter base (filter MTP). All the batches of the assay MTP are transferred into this filter MTP and filtered with suction over a cation exchanger filter plate, a paper filter loaded with phosphate groups. The filter MTP is then washed with buffer or water. The arginine substrate which remains is bonded to the cation exchanger with the aid of this procedure, while the radioactive citrulline formed enzymatically is washed out quantitatively. After drying of the filter MTP and addition of scintillation liquid, the arginine bonded can be counted on a scintillation counter. A non-inhibited NOS reaction is reflected in a low radioactivity. An inhibited enzyme reaction means that the radioactive arginine has not been reacted, i.e. there is a high radioactivity on the filter.
Arginine, L-[2,3,4-^3H]-monohydrochloride; order no. NET-1123, NEN • CaCl2, anhydrous; order no. 2388.1000; Merck KGaA • 1,4-dithiothreitol (DTT), order no. 708984; ROCHE • Na2EDTA-dihydrate; order no. 03680; FLUKA • HEPES, order no. H-3375; SIGMA • NADPH, tetrasodium salt; order no. 1585363; ROCHE • TRIS; ORDER no. 93349; FLUKA
Enzyme preparation buffer: 50 mM Tris-HCl with 1 mM EDTA: The pH of the buffer was adjusted to 7.4 at 4° C.
Incubation buffer (medium): 50 mM HEPES with 1 mM EDTA; 1.25 mM CaCl2 and 1 mM dithiothreitol.
The pH of the buffer was adjusted to 7.4 at 25° C.
Rat cerebelli were used as the starting tissue. The animals were narcotized and sacrificed, the brain tissue, the cerebellum, was removed, 1 ml of enzyme preparation buffer was added (4° C.) per rat cerebellum and the tissue was broken down with a Polytron homogeniser for 1 min at 6,000 rpm. Centrifugation at 4° C. for 15 min at 20,000 g and subsequent decanting of the supernatant and freezing in portions at −80° C. (precipitate discarded) then took place.
Compounds according to the invention were tested for nNOS inhibition in the NOS assay described above.
Work on `CCN(CC)CCn1c(C2CCCN2C(=O)c2ccco2)c(-c2ccccc2)c2cc(Cl)ccc21` (centres unmarked) [Example 9, {2-[5-Chloro-1-(2-diethylamino-ethyl)-3-phenyl-1H-indol-2-yl]-pyrrolidin-1-yl}-furan-2-yl-methanone] yielded an inhibition at 10 µM of 45%. `CCOC(=O)CCC(=O)N1CCCC1c1c(-c2ccccc2)c2cc(Cl)ccc2n1CCN(CC)CC` (centres unmarked) [Example 12, 4-{2-[5-Chloro-1-(2-diethylamino-ethyl)-3-phenyl-1H-indol-2-yl]-pyrrolidin-1-yl)-4-oxo-butyric acid ethyl ester] showed an inhibition at 10 µM of 34%. For `CCN(CC)CCn1c(C2CCCN2C(=O)c2ccc(F)cc2)c(-c2ccccc2)c2cc(Cl)ccc21` (centres unmarked) [Example 13, {2-[5-Chloro-1-(2-diethylamino-ethyl)-3-phenyl-1H-indol-2-yl]-pyrrolidin-1-yl}-(4-fluoro-phenyl)-methanone], the inhibition at 10 µM was 47%. Work on `CCN(CC)CCn1c(C2CCCN2C(=O)C2CCC2)c(-c2ccccc2)c2cc(Cl)ccc21` (centres unmarked) [Example 15, {2-[5-Chloro-1-(2-diethylamino-ethyl)-3-phenyl-1H-indol-2-yl]-pyrrolidin-1-yl}-cyclobutyl-methanone] yielded an inhibition at 10 µM of 38%. For `CCN(CC)CCn1c(C2CCCN2C(=O)c2ccc(Cl)nc2)c(-c2ccccc2)c2cc(Cl)ccc21` (centres unmarked) [Example 17, {2-[5-Chloro-1-(2-diethylamino-ethyl)-3-phenyl-1H-indol-2-yl]-pyrrolidin-1-yl)-(6-chloro-pyridin-3-yl)-methanone], the inhibition at 10 µM was 36%. `CCCCCC(=O)N1CCCC1c1c(-c2ccccc2)c2cc(Cl)ccc2n1CCN(CC)CC` (centres unmarked) [Example 20, 1-{2-[5-Chloro-1-(2-diethylamino-ethyl)-3-phenyl-1H-indol-2-yl]-pyrrolidin-1-yl}-hexan-1-one] gave an inhibition at 10 µM of 35%. `CCN(CC)CCn1c(C2CCCN2C(=O)c2cc(OC)cc(OC)c2)c(-c2ccccc2)c2cc(Cl)ccc21` (centres unmarked) [Example 26, {2-[5-Chloro-1-(2-diethylamino-ethyl)-3-phenyl-1H-indol-2-yl]-pyrrolidin-1-yl}-(3,5-dimethoxy-phenyl)-methanone] gave an inhibition at 10 µM of 51%. In the case of `CCOc1ccc(C(=O)N2CCCC2c2c(-c3ccccc3)c3cc(Cl)ccc3n2CCN(CC)CC)cc1` (centres unmarked) [Example 28, {2-[5-Chloro-1-(2-diethylamino-ethyl)-3-phenyl-1H-indol-2-yl]-pyrrolidin-1-yl}-(4-ethoxy-phenyl)-methanone], the inhibition at 10 µM is reported as 41%. `COCCOCC(=O)N1CCCC1c1c(-c2ccccc2)c2cc(Cl)ccc2n1C` (centres unmarked) [Example 35, 1-[2-(5-Chloro-1-methyl-3-phenyl-1H-indol-2-yl)-pyrrolidin-1-yl]-2-(2-methoxy-ethoxy)-ethanone] was tested, and the inhibition at 10 µM was 41%. `Cn1c(C2CCCN2C(=O)C2CC2)c(-c2ccccc2)c2cc(Cl)ccc21` (centres unmarked) [Example 48, [2-(5-Chloro-1-methyl-3-phenyl-1H-indol-2-yl)-pyrrolidin-1-yl]-cyclopropyl-methanone] showed an inhibition at 10 µM of 35%. In the case of `CC#CCn1c(C2CCCN2C(=O)COC)c(-c2ccccc2)c2cc(Cl)ccc21` (centres unmarked) [Example 73, 1-[2-(1-But-2-ynyl-5-chloro-3-phenyl-1H-indol-2-yl)-pyrrolidin-1-yl]-2-methoxy-ethanone], the inhibition at 10 µM is reported as 54%.
